The target in assay [1] is T1, SERT (Homo sapiens, UniProt P31645). The experiment in a line: hSERT radioligand binding assay (3H-citalopram). The following applies: hSERT membranes (HEK-293), 1.0 nM 3H-citalopram; for Ki: read-out: SERT pKi (converted). Also noted: expressed in transfected cells; host or cells: HEK-293. In a few lines: (§1)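 Membranes came from HEK-293 cells stably expressing hSERT (0.5 μg protein) or hNET (1 μg), with 3H-citalopram or 3H-nisoxetine respectively. Incubation was 60 min at 22° C in Tris buffer with 120 mM NaCl and 5 mM KCl, pH 7.4, followed by filtration and scintillation counting. pKi was derived by Cheng-Prusoff from IC50 and saturation-derived Kd.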
Target sequence in this assay (P31645 whole entry): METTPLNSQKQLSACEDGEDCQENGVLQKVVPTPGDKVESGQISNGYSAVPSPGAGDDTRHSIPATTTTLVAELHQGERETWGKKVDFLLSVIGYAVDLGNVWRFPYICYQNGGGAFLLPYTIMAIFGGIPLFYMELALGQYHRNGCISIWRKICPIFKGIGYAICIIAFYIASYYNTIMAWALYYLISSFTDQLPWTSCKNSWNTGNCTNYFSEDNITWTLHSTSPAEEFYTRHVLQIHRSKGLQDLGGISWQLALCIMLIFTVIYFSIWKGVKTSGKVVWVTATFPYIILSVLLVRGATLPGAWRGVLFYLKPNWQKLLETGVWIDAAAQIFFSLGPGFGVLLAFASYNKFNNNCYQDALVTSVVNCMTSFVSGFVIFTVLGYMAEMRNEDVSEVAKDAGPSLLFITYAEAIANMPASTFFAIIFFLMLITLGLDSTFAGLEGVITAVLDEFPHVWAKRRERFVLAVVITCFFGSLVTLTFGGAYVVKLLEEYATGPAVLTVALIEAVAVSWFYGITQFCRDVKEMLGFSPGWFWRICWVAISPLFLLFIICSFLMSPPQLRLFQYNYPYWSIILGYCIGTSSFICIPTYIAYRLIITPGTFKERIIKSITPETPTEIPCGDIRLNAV

Assay [2] addresses T2, NET (Homo sapiens, UniProt P23975). The experiment in a line: hNET radioligand binding assay (3H-nisoxetine). Details: expressed in transfected cells; host or cells: HEK-293. The following applies: hNET membranes (HEK-293), 1.0 nM 3H-nisoxetine; for Ki: read-out: NET pKi (converted). A digest of the protocol:
as §1

Assay [3] addresses T1, SERT. The settings on record: cited from earlier work.
Target sequence in this assay (P31645 whole entry, species assumed): as the sequence (P31645 whole entry) above
Assay [4] addresses T2, NET. The settings on record: cited from earlier work.

SMILES strings stand for the structures. Bounds are passed on as bounds.

T2 sequence (P23975 whole entry): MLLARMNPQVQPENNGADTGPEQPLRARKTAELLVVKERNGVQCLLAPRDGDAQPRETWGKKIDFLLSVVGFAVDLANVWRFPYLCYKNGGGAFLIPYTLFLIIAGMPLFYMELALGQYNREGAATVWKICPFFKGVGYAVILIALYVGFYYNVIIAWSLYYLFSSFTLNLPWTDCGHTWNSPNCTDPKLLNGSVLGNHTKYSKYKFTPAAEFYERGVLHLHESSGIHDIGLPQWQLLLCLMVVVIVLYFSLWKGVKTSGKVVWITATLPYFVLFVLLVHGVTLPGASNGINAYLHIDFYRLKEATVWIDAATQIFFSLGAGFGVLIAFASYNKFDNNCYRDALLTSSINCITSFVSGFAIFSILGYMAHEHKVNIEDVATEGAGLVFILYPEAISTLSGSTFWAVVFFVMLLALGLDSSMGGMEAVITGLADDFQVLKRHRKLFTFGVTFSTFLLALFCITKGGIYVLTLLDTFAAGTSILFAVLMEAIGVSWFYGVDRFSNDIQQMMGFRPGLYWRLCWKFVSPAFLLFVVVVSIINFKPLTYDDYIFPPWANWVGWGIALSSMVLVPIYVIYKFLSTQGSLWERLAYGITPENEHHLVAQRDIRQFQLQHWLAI

Consider `Cc1ccc(Cl)c(O[C@H](c2ccncc2)[C@H]2CCNC2)c1Cl` [Example 3-7, 4-[(S)-(2,6-Dichloro-3-methylphenoxy)-(S)-pyrrolidin-3-yl-methyl]pyridine], for which the Ki at SERT [1] and on NET [2] was no more than 100 nM each time.
As to `Fc1ccc(OC(c2nccs2)C2CCNC2)c(F)c1F` [Example 5-1, 2-[(R)-((S)-Pyrrolidin-3-yl-(2,3,4-trifluorophenoxy)methyl]thiazole], the Ki was no more than 100 nM on SERT [1] and no more than 10000 nM on NET [2].
With `Fc1ccc(OC(c2nccs2)C2CCNC2)c(F)c1F` [Example 5-2, 2-[((S)-((S)-Pyrrolidin-3-yl-(2,3,4-trifluorophenoxy)methyl]thiazole], the “SERT pKi” value on SERT [1] was “≧7.0”. Also, at NET [2], the Ki is no more than 100 nM.
Take `Fc1cc(F)c(F)c(O[C@@H](c2nccs2)[C@H]2CCNC2)c1F` [Example 5-3]: the “SERT pKi” value on SERT [1] is “≧5.0”. Besides, the “NET pKi” value at NET [2] was “≧5.0”.
In the case of `Fc1cc(F)c(F)c(OC(c2nccs2)C2CCNC2)c1F` [Example 5-4, 2-[((S)-((S)-Pyrrolidin-3-yl-(2,3,5,6-tetrafluorophenoxy)methyl]thiazole], the values for the Ki on SERT [1] and on NET [2] were no more than 10000 nM and no more than 100 nM, respectively.
Take `Fc1cc(F)c(OC(c2nccs2)C2CCNC2)c(F)c1` [Example 5-6, 2-[(R)-((S)-Pyrrolidin-3-yl-(2,4,6-trifluorophenoxy)methyl]thiazole]: the Ki at SERT [1] and at NET [2] was no more than 10000 nM each time.
Take `Fc1cc(F)c(OC(c2nccs2)C2CCNC2)c(F)c1` [Example 5-7, 2-[((S)-((S)-Pyrrolidin-3-yl-(2,4,6-trifluorophenoxy)methyl]thiazole]: the Ki on SERT [1] and at NET [2] was no more than 100 nM in each case.
In the case of `Fc1cc(F)c(Cl)c(O[C@@H](c2nccs2)[C@H]2CCNC2)c1Cl` [Example 5-8], the “SERT pKi” value on SERT [1] is recorded as “≧5.0”. In addition, the “NET pKi” value at NET [2] was “≧5.0”.
Regarding `Fc1cc(F)c(Cl)c(OC(c2nccs2)C2CCNC2)c1Cl` [Example 5-9, 2-[((S)-(2,6-Dichloro-3,5-difluorophenoxy)-((S)-pyrrolidin-3-yl-methyl]thiazole], the Ki on SERT [1] and on NET [2] was no more than 100 nM throughout.
As to `Fc1cc(Cl)c(OC(c2nccs2)C2CCNC2)c(Cl)c1` [Example 5-10, 2-[(R)-(2,6-Dichloro-4-fluorophenoxy)-((S)-pyrrolidin-3-yl-methyl]thiazole], the Ki on SERT [1] and at NET [2] was no more than 10000 nM each time.
For the compound `Fc1cc(Cl)c(OC(c2nccs2)C2CCNC2)c(Cl)c1` [Example 5-11, 2-[((S)-(2,6-Dichloro-4-fluorophenoxy)-((S)-pyrrolidin-3-yl-methyl]thiazole], at SERT [1], the Ki was no more than 100 nM. Besides, the “NET pKi” value at NET [2] is recorded as “≧5.0”.
For `Cc1cc(Cl)c(OC(c2nccs2)C2CCNC2)c(Cl)c1` [Example 5-13, 2-[(R)-(2,6-Dichloro-4-methylphenoxy)-((S)-pyrrolidin-3-yl-methyl]thiazole], the Ki at SERT [1] and on NET [2] was no more than 10000 nM in each case.
`Cc1cc(Cl)c(O[C@H](c2nccs2)[C@H]2CCNC2)c(Cl)c1` [Example 5-14]: on SERT [1], the “SERT pKi” value is “≧7.0”. Besides, on NET [2], the “NET pKi” value is listed as “≧5.0”.
For `Fc1ccc(F)c(O[C@@H](c2nccs2)[C@H]2CCNC2)c1Cl` [Example 5-15], in that order: “≧7.0” and “≧5.0”.
`Fc1ccc(F)c(OC(c2nccs2)C2CCNC2)c1Cl` [Example 5-16, 2-[((S)-(2-Chloro-3,6-difluorophenoxy)-((S)-pyrrolidin-3-yl-methyl]thiazole]: the Ki at SERT [1] and at NET [2] was no more than 100 nM in each case.
Regarding `Cc1ccc(F)c(O[C@H](c2nccs2)C2CCNC2)c1Cl` (stereo partly shown) [Example 5-17], the “SERT pKi” value at SERT [1] was “≧7.0”. In addition, at NET [2], the “NET pKi” value is reported as “≧7.0”.
Turning to `Cc1ccc(F)c(OC(c2nccs2)C2CCNC2)c1Cl` [Example 5-18, 2-[(R)-(2-Chloro-6-fluoro-3-methylphenoxy)-((S)-pyrrolidin-3-yl-methyl]thiazole], the Ki at SERT [1] and at NET [2] was no more than 100 nM throughout.
Take `Fc1ccc(O[C@H](c2nccs2)[C@H]2CCNC2)c(Cl)c1` [Example 5-19, 2-[(S)-(2-Chloro-4-fluorophenoxy)-(S)-pyrrolidin-3-ylmethyl]thiazole]: the Ki on SERT [1] was no more than 100 nM; on NET [2], no more than 10000 nM.
For `Fc1ccc(OC(c2nccs2)[C@H]2CCNC2)c(Cl)c1` (stereo partly drawn) [Example 5-20, 2-[(S)-(2-Chloro-4-fluorophenoxy)-pyrrolidin-3-yl-methyl]thiazole], in that order: no more than 100 nM and no more than 100 nM.
Turning to `Cc1cc(Cl)ccc1O[C@@H](c1nccs1)[C@H]1CCNC1` [Example 5-22], the “SERT pKi” value on SERT [1] is recorded as “≧7.0”. At NET [2], the “NET pKi” value was “≧7.0”.
In the case of `Cc1ccc(F)c(O[C@H](c2nccs2)[C@H]2CCNC2)c1Cl` [Example 5-23], the “SERT pKi” value on SERT [1] is “≧7.0”. In addition, at NET [2], the “NET pKi” value was “≧7.0”.
With `Cc1ccccc1O[C@@H](c1nccs1)[C@H]1CCNC1` [Example 5-24], at SERT [1], the “SERT pKi” value is “≧7.0”. Moreover, the “NET pKi” value on NET [2] is on record as “≧5.0”.
For `Cc1ccccc1O[C@H](c1nccs1)[C@H]1CCNC1` [Example 5-25], in that order: “≧7.0” and “≧7.0”.
`Clc1cc(Cl)cc(OC(c2nccs2)C2CCNC2)c1` [Example 5-26, 2-[(R)-(3,5-Dichlorophenoxy)-((S)-pyrrolidin-3-yl-methyl]thiazole]: the Ki at SERT [1] and at NET [2] was no more than 100 nM each time.
Take `Clc1cc(Cl)cc(O[C@H](c2nccs2)[C@H]2CCNC2)c1` [Example 5-27]: the “SERT pKi” value at SERT [1] is given as “≧7.0”. Further, at NET [2], the “NET pKi” value is listed as “≧7.0”.
On to `COc1cc(F)c(O[C@@H](c2nccs2)[C@H]2CCNC2)c(F)c1` [Example 5-28], for which the “SERT pKi” value at SERT [1] is “≧7.0”. Further, the “NET pKi” value on NET [2] is “≧5.0”.
In the case of `COc1cc(F)c(O[C@H](c2nccs2)C2CCNC2)c(F)c1` (stereo partly shown) [Example 5-29], the “SERT pKi” value on SERT [1] is reported as “≧7.0”. Besides, at NET [2], the “NET pKi” value is on record as “≧5.0”.
For `Fc1ccc(O[C@@H](c2nccs2)[C@H]2CCNC2)cc1Cl` [Example 5-30], in that order: “≧7.0” and “≧5.0”.
For `Fc1ccc(O[C@H](c2nccs2)[C@H]2CCNC2)cc1Cl` [Example 5-31], in that order: “≧7.0” and “≧7.0”.
As to `Fc1cc(Cl)ccc1OC(c1nccs1)C1CCNC1` [Example 5-32, 2-[(R)-(4-Chloro-2-fluorophenoxy)-((S)-pyrrolidin-3-yl-methyl]thiazole], the Ki on SERT [1] is no more than 100 nM; at NET [2], no more than 10000 nM.
Take `Fc1cc(Cl)ccc1O[C@H](c1nccs1)[C@H]1CCNC1` [Example 5-33]: the “SERT pKi” value at SERT [1] was “≧7.0”. Besides, the “NET pKi” value at NET [2] is “≧7.0”.
For the compound `Fc1ccc(F)c(O[C@@H](c2ccco2)[C@H]2CCNC2)c1Cl` [Example 8-1, (S)-3-[(R)-(2-Chloro-3,6-difluorophenoxy)furan-2-yl-methyl]pyrrolidine], the Ki on SERT [1] and on NET [2] was no more than 10000 nM in each case.
On to `Cc1cc(Cl)ccc1O[C@@H](c1ccco1)[C@H]1CCNC1` [Example 8-2, (S)-3-[(R)-(4-Chloro-2-methylphenoxy)furan-2-yl-methyl]pyrrolidine], for which the Ki on SERT [1] and on NET [2] was no more than 10000 nM each time.
As to `Clc1cc(Cl)cc(O[C@@H](c2ccco2)[C@H]2CCNC2)c1` [Example 8-3, (S)-3-[(R)-(3,5-Dichlorophenoxy)furan-2-yl-methyl]pyrrolidine], the Ki at SERT [1] and on NET [2] was no more than 100 nM each time.
For `Clc1cc(Cl)cc(O[C@H](c2ccco2)[C@H]2CCNC2)c1` [Example 8-4, (S)-3-[(S)-(3,5-Dichlorophenoxy)furan-2-yl-methyl]pyrrolidine], the Ki on SERT [1] and on NET [2] was no more than 100 nM each time.
Consider `Clc1cc(Cl)cc(OC(c2ccoc2)C2CCNC2)c1` [Example 9-1, (S)-3-[(R)-(3,5-Dichlorophenoxy)-furan-3-yl-methyl]pyrrolidione], for which the Ki at SERT [1] and at NET [2] was no more than 100 nM in each case.
`Cc1cc(Cl)cnc1O[C@@H](c1ccccc1)[C@H]1CCNC1` [Example 13]: the Ki on SERT [1] and on NET [2] was no more than 100 nM in each case.
Consider `Cc1cc(Cl)cnc1O[C@@H](c1cncc(F)c1)[C@H]1CCNC1` [Example 17], for which the Ki on SERT [1] and at NET [2] was no more than 100 nM in each case.
Take `Cc1ccc(C23CNCC2C3)cc1` (stereo not shown) [bicifadine]: at SERT [3], the negative-log Ki (pKi) (in general, −log10 of the Ki, conventionally taken in molar units) at SERT was 7.0. Further, at NET [4], the “pKi at NET” value is listed as 6.7.
`CCN(CC)C(=O)C1(c2ccccc2)CC1CN` (stereo not shown) [milnacipran]: the “selectivity (measured as pKi) for SERT over NET” value at SERT [3] is 2.5 fold.

The values above are taken from patent US20100267743A1, “3-(PHENOXYPYRROLIDIN-3-YL-METHYL)HETEROARYL, 3-(PHENYLPYRROLIDIN-3-YLMETHOXY)HETEROARYL, AND 3-(HETEROARYLPYRROLIDIN-3-YLMETHOXY)HETEROARYL COMPOUNDS” (priority 2009, published 2010).
